Measurements taken from patent US20240239755A1, “SUBSTITUTED PYRIDAZINONES, SALTS OR N-OXIDES THEREOF AND THEIR USE AS HERBICIDALLY ACTIVE SUBSTANCES” (Bayer Aktiengesellschaft, priority 2021, published 2024).

Columns and labels:
Assay type in all cases: in vivo
[1] = tested on: Setaria viridis (SETVI); test: Herbicidal pre-emergence action, 1280 g/ha (Table A8); details: visual grading after ca. 3 weeks vs untreated controls
Method in brief: (§1)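 Weed seeds sown in sandy loam pots and covered with soil; compounds formulated as WP or EC applied to the soil surface in water with 0.5% additive at 600 L water/ha. Pots kept in a greenhouse under optimum growth conditions; damage visually graded after ca. 3 weeks versus untreated controls (0% = as control, 100% = plants dead).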

[2] = tested on: Amaranthus retroflexus (AMARE); test: Herbicidal pre-emergence action, 1280 g/ha (Table A11); details: visual grading after ca. 3 weeks vs untreated controls
Method in brief: as §1

[3] = tested on: Digitaria sanguinalis (DIGSA); test: Herbicidal post-emergence action, 1280 g/ha (Table B2); details: visual assessment after ca. 3 weeks vs untreated controls
Source text: (§2) Seeds of mono- and dicotyledonous weed plants were sown in plastic pots (double sowings with one species of mono- and one species of dicotyledonous weed plants per pot), in sandy loam, covered with soil and grown under controlled growth conditions. 2 to 3 weeks after sowing, the test plants were sprayed in the single-leaf stage. The compounds according to the invention, formulated in the form of wettable powders (WP) or as emulsifiable concentrates (EC), were sprayed onto the green plant parts as an aqueous suspension or as an emulsion, with the addition of 0.5% of an additive, at an application rate of 600 litres of water per hectare (converted). The test plants were placed in the greenhouse for ca. 3 weeks under optimum growth conditions, and then the effect of the preparations was assessed visually in comparison with untreated controls (herbicidal effect in percent (%): 100% effect=plants have died, 0% effect=as control plants). Tables B1 to B11 below, show the effects of selected compounds of the general formula (I) according to Table 1 on various harmful plants using an application rate corresponding to 1280 g/ha obtained by the experimental procedure mentioned above.

[4] = tested on: Kochia scoparia (KCHSC); test: Herbicidal post-emergence action, 1280 g/ha (Table B4); details: visual assessment after ca. 3 weeks vs untreated controls
Method in brief: (§3)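 Foliar application to single-leaf weeds in sandy loam; percent kill judged visually ca. 3 weeks later relative to untreated plants.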

[5] = tested on: Veronica persica (VERPE); test: Herbicidal post-emergence action, 1280 g/ha, VERPE; details: visual grading vs untreated controls
Method in brief: (§4)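 Visual rating ~3 weeks after treatment: 0% equals untreated control, 100% means plants died. Treatment was a 1280 g/ha foliar spray (600 L water/ha, 0.5% additive, WP or EC formulation) applied to single-leaf-stage plants grown 2–3 weeks in sandy loam under controlled conditions.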

[6] = tested on: Matricaria inodora (MATIN); test: Herbicidal pre-emergence action, 1280 g/ha (Table A6); details: visual grading after ca. 3 weeks vs untreated controls
Method in brief: as §1

[7] = tested on: Poa annua (POAAN); test: Herbicidal pre-emergence action, 1280 g/ha (Table A7); details: visual grading after ca. 3 weeks vs untreated controls
Method in brief: as §1

[8] = tested on: Stellaria media (STEME); test: Herbicidal pre-emergence action, 1280 g/ha (Table A9); details: visual grading after ca. 3 weeks vs untreated controls
Method in brief: as §1

[9] = tested on: Amaranthus retroflexus (AMARE); test: Herbicidal post-emergence action, 1280 g/ha, AMARE; details: visual grading vs untreated controls
Method in brief: as §4

[10] = tested on: Matricaria inodora (MATIN); test: Herbicidal pre-emergence action, 320 g/ha (Table C3); details: visual grading after ca. 3 weeks vs untreated controls
Source text: (§5) Seeds of mono- and dicotyledonous weed plants were sown in plastic pots (double sowings with one species of mono- and one species of dicotyledonous weed plants per pot), in sandy loam, and covered with soil. The compounds according to the invention, formulated in the form of wettable powders (WP) or as emulsifiable concentrates (EC), were applied to the surface of the covering soil as an aqueous suspension or as an emulsion, with the addition of 0.5% of an additive, at an application rate of 600 litres of water per hectare (converted). Following treatment, the pots were placed in a greenhouse and kept under optimum growth conditions for the test plants. The visual grading of the damage to the test plants was carried out after ca. 3 weeks in comparison to untreated controls (herbicidal effect in percent (%): 100% effect=plants have died, 0% effect=as control plants). Tables C1 to C6 below, show the effects of selected compounds of the general formula (I) according to Table 1 on various harmful plants using an application rate corresponding to 320 g/ha obtained by the experimental procedure mentioned above.

[11] = tested on: Stellaria media (STEME); test: Herbicidal pre-emergence action, 320 g/ha, STEME; details: visual grading after ca. 3 weeks
Method in brief: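 Percent herbicidal effect, graded by eye about 3 weeks after treatment relative to untreated pots (0% matching controls, 100% dead plants). Application of 320 g/ha onto soil covering freshly sown seeds, as aqueous suspension or emulsion plus 0.5% additive at 600 L/ha; pots kept in greenhouse.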

[12] = tested on: Lolium rigidum (LOLRI); test: Herbicidal pre-emergence action, 1280 g/ha (Table A5); details: visual grading after ca. 3 weeks vs untreated controls
Method in brief: as §1

[13] = tested on: Abutilon theophrasti (ABUTH); test: Herbicidal post-emergence action, 1280 g/ha (Table B1); details: visual assessment after ca. 3 weeks vs untreated controls
Method in brief: as §3

[14] = tested on: Echinochloa crus-galli (ECHCG); test: Herbicidal post-emergence action, 1280 g/ha (Table B3); details: visual assessment after ca. 3 weeks vs untreated controls
Source text: as §2

[15] = tested on: Lolium rigidum (LOLRI); test: Herbicidal post-emergence action, 1280 g/ha (Table B5); details: visual assessment after ca. 3 weeks vs untreated controls
Method in brief: as §3

[16] = tested on: Matricaria inodora (MATIN); test: Herbicidal post-emergence action, 1280 g/ha (Table B6); details: visual assessment after ca. 3 weeks vs untreated controls
Method in brief: as §3

[17] = tested on: Setaria viridis (SETVI); test: Herbicidal post-emergence action, 1280 g/ha (Table B8); details: visual assessment after ca. 3 weeks vs untreated controls
Source text: as §2

[18] = tested on: Stellaria media (STEME); test: Herbicidal post-emergence action, 1280 g/ha (Table B9); details: visual assessment after ca. 3 weeks vs untreated controls
Method in brief: as §3

[19] = tested on: Abutilon theophrasti (ABUTH); test: Herbicidal post-emergence action, 320 g/ha, ABUTH; details: visual grading after ca. 3 weeks
Method in brief: (§6)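 Weeds were sown in sandy loam pots and sprayed post-emergence at the single-leaf stage, 2 to 3 weeks after sowing, with WP or EC formulations in water plus 0.5% additive at 600 L/ha. Visual % injury versus untreated controls was scored after ca. 3 weeks in the greenhouse.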

[20] = tested on: Stellaria media (STEME); test: Herbicidal post-emergence action, 320 g/ha, STEME; details: visual grading after ca. 3 weeks
Method in brief: as §6

[21] = tested on: Amaranthus retroflexus (AMARE); test: Herbicidal post-emergence action, 320 g/ha, AMARE; details: visual grading after ca. 3 weeks
Method in brief: as §6

[22] = tested on: Kochia scoparia (KCHSC); test: Herbicidal pre-emergence action, 1280 g/ha (Table A4); details: visual grading after ca. 3 weeks vs untreated controls
Method in brief: as §1

[23] = tested on: Lolium rigidum (LOLRI); test: Herbicidal pre-emergence action, 320 g/ha (Table C2); details: visual grading after ca. 3 weeks vs untreated controls
Method in brief: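 Herbicidal effect was graded by eye roughly 3 weeks after treatment, from 0% (as control) to 100% (dead plants). Weed seeds sown in sandy loam were covered and sprayed on the soil surface with WP/EC suspensions or emulsions, 0.5% additive, 600 L water/ha, then kept in a greenhouse.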

[24] = tested on: Matricaria inodora (MATIN); test: Herbicidal post-emergence action, 320 g/ha, MATIN; details: visual grading after ca. 3 weeks
Method in brief: as §6

[25] = tested on: Veronica persica (VERPE); test: Herbicidal post-emergence action, 320 g/ha, VERPE; details: visual grading after ca. 3 weeks
Method in brief: as §6

[26] = tested on: Abutilon theophrasti (ABUTH); test: Herbicidal pre-emergence action, 1280 g/ha (Table A1); details: visual grading after ca. 3 weeks vs untreated controls
Method in brief: as §1

[27] = tested on: Amaranthus retroflexus (AMARE); test: Herbicidal pre-emergence action, 320 g/ha, AMARE; details: visual grading after ca. 3 weeks
Source text: as §5, with “plants).” for “plants). Tables C1 to C6 below, show the effects of selected compounds of the general formula (I) according to Table 1 on various harmful plants using an application rate corresponding to 320 g/ha obtained by the experimental procedure mentioned above.”
Tables C1 to C6 below, show the effects of selected compounds of the general formula (I) according to Table 1 on various harmful plants using an application rate corresponding to 320 g/ha obtained by the experimental procedure mentioned above.

Cc1nn(C)c(=O)c(Oc2ccc(Br)cc2)c1O [Example I-068]
herbicidal effect SETVI [1]: 90% | herbicidal effect AMARE [2]: 90% | herbicidal effect DIGSA [3]: 90% | herbicidal effect KCHSC [4]: 90% | herbicidal effect VERPE [5]: 90%

Cc1nn(C)c(=O)c(Oc2ccccc2C#N)c1O [Example I-028]
herbicidal effect MATIN [6]: 100% | herbicidal effect POAAN [7]: 100% | herbicidal effect STEME [8]: 100% | herbicidal effect AMARE [9]: 90% | herbicidal effect MATIN [10]: 100% | herbicidal effect STEME [11]: 100%

CCOC(=O)Oc1c(C)nn(C)c(=O)c1Oc1ccc(F)cc1C1CC1 [Example I-034]
herbicidal effect LOLRI [12]: 100% | herbicidal effect MATIN [6]: 100% | herbicidal effect AMARE [2]: 90% | herbicidal effect ABUTH [13]: 90% | herbicidal effect DIGSA [3]: 90% | herbicidal effect ECHCG [14]: 90% | herbicidal effect KCHSC [4]: 90% | herbicidal effect LOLRI [15]: 90% | herbicidal effect MATIN [16]: 90% | herbicidal effect SETVI [17]: 90% | herbicidal effect STEME [18]: 90% | herbicidal effect VERPE [5]: 90% | herbicidal effect AMARE [9]: 100% | herbicidal effect ABUTH [19]: 90% | herbicidal effect STEME [20]: 90% | herbicidal effect AMARE [21]: 90%

Cc1nn(C)c(=O)c(Oc2cc(F)ccc2Br)c1O [Example I-026]
herbicidal effect KCHSC [22]: 90% | herbicidal effect LOLRI [12]: 100% | herbicidal effect MATIN [6]: 100% | herbicidal effect POAAN [7]: 90% | herbicidal effect STEME [8]: 100% | herbicidal effect AMARE [2]: 100% | herbicidal effect ABUTH [13]: 100% | herbicidal effect KCHSC [4]: 90% | herbicidal effect MATIN [16]: 100% | herbicidal effect STEME [18]: 90% | herbicidal effect VERPE [5]: 90% | herbicidal effect AMARE [9]: 100% | herbicidal effect LOLRI [23]: 90% | herbicidal effect MATIN [10]: 90% | herbicidal effect STEME [11]: 100% | herbicidal effect ABUTH [19]: 90% | herbicidal effect MATIN [24]: 90% | herbicidal effect VERPE [25]: 90% | herbicidal effect AMARE [21]: 90%

Cc1nn(C)c(=O)c(Oc2cc(Cl)ccc2Br)c1O [Example I-091]
herbicidal effect ABUTH [26]: 90% | herbicidal effect LOLRI [12]: 100% | herbicidal effect MATIN [6]: 100% | herbicidal effect STEME [8]: 100% | herbicidal effect AMARE [2]: 100% | herbicidal effect LOLRI [15]: 90% | herbicidal effect STEME [18]: 90% | herbicidal effect LOLRI [23]: 100% | herbicidal effect MATIN [10]: 90% | herbicidal effect STEME [11]: 100% | herbicidal effect AMARE [27]: 90% | herbicidal effect STEME [20]: 90%

Cc1nn(C)c(=O)c(Oc2cc(Cl)cc(Cl)c2)c1O [Example I-027]
herbicidal effect ABUTH [26]: 100% | herbicidal effect KCHSC [22]: 90% | herbicidal effect LOLRI [12]: 100% | herbicidal effect MATIN [6]: 100% | herbicidal effect STEME [8]: 100% | herbicidal effect ABUTH [13]: 90% | herbicidal effect KCHSC [4]: 90% | herbicidal effect STEME [18]: 90% | herbicidal effect VERPE [5]: 90% | herbicidal effect AMARE [9]: 100% | herbicidal effect MATIN [10]: 100% | herbicidal effect STEME [11]: 100% | herbicidal effect ABUTH [19]: 90% | herbicidal effect STEME [20]: 90% | herbicidal effect AMARE [21]: 90%

Cc1nn(C)c(=O)c(Oc2ccc(F)c(Cl)n2)c1O [Example I-052]
herbicidal effect DIGSA [3]: 90%
